The test system of assay [1] is 74-week old mice (C57B16/J). Briefly: Grip strength test (smart grip strength meter). It counts as in vivo, mouse. Particulars: 7 mg/kg and 20 mg/kg intraperitoneal twice a week for 6 weeks. How it is done: 74-week old mice (C57B16/J) were purchased from Oriental Yeast. Various concentrations (0 mg/kg (control), 7 mg/kg, and 20 mg/kg) of C-82 were administered twice a week through a 6-week intraperitoneal administration until reaching 80-week old. Muscle strength (endurance) and grip strength of mice administered with C-82 were then measured through a treadmill test and smart grip strength meter for rats and mice (Muromachi Kikai Co., Ltd.), respectively. The treadmill test was conducted under the same condition as Example 1.

Assay [2] relates to Mice induced to be obese by feeding high fat feed. Briefly: High fat feed obese mice (metabolism). It counts as in vivo, mouse. Particulars: administered versus non-administered group. On the procedure:
Mice induced to be obese by feeding high fat feed were divided into two groups. OK was administered to one of the groups, and OK was not administered to the other group.

For the next assay, the system named is old mice. Briefly: Muscle mass by MRI (volume of right gastrocnemius muscle/soleus muscle), with/without treadmill exercise. It counts as in vivo, mouse. How it is done:
OK-1 was then intraperitoneally administered to each mouse twice a week at 20 mg/kg/day over 8 weeks (i.e., until reaching 23 week old and 88 week old, respectively). Treadmill exercise was conducted three times a week at 8 m/minute for 5 minutes→15 m/minute for 35 minutes while administering OK-1 twice a week at 20 mg/kg/day over 5 weeks (i.e., until reaching 28 week old and 93 week old, respectively). The muscle mass was then measured with the following equipment and conditions through MRI (FIG. 1B). MRI (MRminiSA1545, Japan REDOX) (magnetic flux density: 1.5 tesla (permanent magnet) (temporal resolution: 100 ns) was used to capture images of the lower limbs of the mice. The recovered data was converted into dicom data, and the volume of right gastrocnemius muscle/soleus muscle was quantified with Osirix Lite.

Assay [3] can be described thus: Blood (plasma) test of six markers with biochemical automatic analyzer. Format: in vivo, mouse. How it is done:
75-week old mice (C57B16/J) were purchased from Oriental Yeast. Various concentrations (0 mg/kg (control), 0.2 mg/kg, 2 mg/kg, 20 mg/kg, and 40 mg/kg) of OK-1 were administered twice a week for 12 weeks until reaching 87-week old. Blood (plasma) was then recovered, and the concentrations of the following six markers were measured using a biochemical automatic analyzer (JCA-BM6050, JEOL). • LDH: lactate dehydrogenase can predict a liver, myocardial, or skeletal muscle disorder, etc. A decrease in LDH is expected to have a therapeutic effect on acute hepatitis, chronic hepatitis, cirrhosis, liver cancer, and other liver diseases, acute myocardial infarction, congested heart failure, and other heart diseases, polymyositis, muscular dystrophy, and other muscular diseases, pernicious anemia, leukemia, hemolytic anemia, etc. • ALT: This is a biomarker that can predict a liver tissue disorder. A decrease in ALT is expected to have a therapeutic effect on acute hepatitis, chronic hepatitis, alcoholic hepatitis, cirrhosis, liver cancer, fatty liver, acute myocardial infarction and other heart diseases, progressive muscular dystrophy and other muscular diseases, etc. • TG: Neutral fat is used for predicting diabetes, obesity, or arteriosclerotic disease. A decrease in TG is expected to have a therapeutic effect on hyperchylomicronemia, LPL deficiency, diabetes, obesity, arteriosclerosis, gout, hypothyroidism, Cushing's syndrome, nephrotic syndrome, obstructive jaundice, acute/chronic pancreatitis, etc. • HDL-C: This is used as a marker for arteriosclerosis, diabetes, cirrhosis, etc., of HDL cholesterol. A decrease in HDL-C is expected to have a therapeutic effect on primary biliary cirrhosis and hyperthyroidism. • UN: Urea nitrogen is a biomarker that can predict dysfunction of kidney or urinary system. An increase in UN is expected to have a therapeutic effect on toxic hepatitis, fulminant hepatitis, end-stage of cirrhosis, diabetes insipidus, acromegaly, etc. • UA: Uric acid is a biomarker for kidney or liver function. An increase in UA is expected to have a therapeutic effect on cirrhosis, xanthinuria, Fanconi syndrome, Wilson's syndrome, glomerulonephritis, etc.

Assay [4] concerns ALS mouse models (e.g., SOD1G93A mice). Put plainly: ALS mouse model. As to conditions: administered versus non-administered group. Format: in vivo. How it is done:
ALS mouse models (e.g., SOD1G93A mice) were divided into two groups. OK was administered to one of the groups, and OK was not administered to the other group.

Where [5] appears, read: 75-week old mice, 0.2, 2, 20, 40 mg/kg twice a week for 12 weeks.
[6] abbreviates: at a specific OK-1 concentration, twice a week for 12 weeks.

This is an account of results in patent US20230390296A1, “NOVEL TREATMENT AND PREVENTION OF SARCOPENIA-RELATED DISEASES” (KEIO UNIVERSITY, priority 2020, published 2023).

Entries after “also recorded” stand apart in the source; their conditions may differ.

Regarding `C[C@H]1[C@H]2N(C(=O)CN(C)N2C(=O)NCc2ccccc2)[C@@H](Cc2ccc(O)cc2)C(=O)N1Cc1cccc2cccnc12` [C-82, (6S,9S)—N-benzyl-6-(4-hydroxybenzyl)-2,9-dimethyl-4,7-dioxo-8-(quinolin-8-ylmethyl)hexahydro-2H-pyrazino[2,1-c][1,2,4]triazine-1(6H)-carboxamide], the grip strength entry in assay [1] is “a significant difference was not observed in grip strength, a tendency for a concentration dependent increase was observed; also recorded: a significant difference was not observed in grip strength, a tendency of a concentration dependent increase was observed”.
Regarding `C[C@H]1[C@H]2N(C(=O)CN(C)N2C(=O)NCc2ccccc2)[C@@H](Cc2ccc(OP(=O)(O)O)cc2)C(=O)N1Cc1cccc2cccnc12` [OK-1], the metabolism result in assay [2] is recorded as “metabolism is improved”. The “muscle mass (MRI), combined use of administration with exercise” value in the assay on old mice (20 mg/kg/day twice a week plus treadmill exercise three times a week over 5 weeks) is “muscle mass significantly recovers synergistically”. Moreover, in the assay with old mice (intraperitoneal 20 mg/kg/day twice a week over 8 weeks, then 5 further weeks), the “muscle mass (MRI)” value is reported as “increases muscle mass in old mice”. Besides, the HDL-C concentration entry in assay [3] (0.2 to 40 mg/kg twice a week for 12 weeks) is recorded as “A significant change was not observed”. Besides, in assay [3] (setting [5]), the LDH concentration entry is given as “reduces the LDH concentration” and the UA concentration result was “increases the UA concentration at all concentrations”. In assay [3] (setting [6]), the ALT concentration result is listed as “a decrease in the ALT concentration”, the TG concentration entry was “a decrease in TG concentration” and the UN concentration entry is listed as “an increase in UN concentration”. The ALS entry in assay [4] was “ALS is improved”.
